Assay results: paper PMC5962653 (Frontiers in Microbiology, 2018)
Values after ≈ are worked out from the molar mass of the structure shown. Read-outs that look alike come from different tables or passages of the source. Marks after values point to notes of the source that are not given here.

Experiments:
[1] = system: K. pneumoniae Kp29, KPC-3 producer; test: MIC by broth microdilution (agar dilution for fosfomycin); type: cell-based, Klebsiella pneumoniae; details: for MIC: Klebsiella pneumoniae
Excerpt: (§1) Four genetically unrelated clinical isolates of CP-Kp were studied: Kp07, a VIM-1 ST 1603 clone producer ([Miro et al., 2013]); Kp21, which co-produced VIM-1 and the acquired AmpC type beta-lactamase DHA-1 ST 11 clone ([Miro et al., 2013]); Kp28, co-producing OXA-48 ST11 clone and the extended spectrum beta-lactamase (ESBL) CTX-M-15 ([Oteo et al., 2015]); and Kp29, co-producing KPC-3 ST512 clone with the broad spectrum beta-lactamases TEM-1 and SHV-11 ([Lopez-Cerero et al., 2014]), thereinafter VIM-1, VIM-1/DHA-1, OXA-48 plus CTX-M-15, and KPC-3 producers, respectively. Identification of these isolates was confirmed by a Microflex LT-MALDI Biotyper mass spectrometer (Bruker Daltonics GmbH, Bremen, Germany). The presence of carbapenemase genes, and genes coding for other beta-lactamases was confirmed by PCR and sequencing as described previously. The absence of genetic relation among the isolates was confirmed by PFGE analysis of chromosomal restriction fragments obtained after XbaI cleavage following the criteria of [Tenover et al. (1995)]. […] The antibiotic susceptibility profiles are included in the Supplementary Information.
(§2) MICs of antibiotics were determined by broth microdilution as recommended by the [Clinical and Laboratory Standards Institute [CLSI] (2012)], using Mueller Hinton broth II (MHB) (Becton Dickinson & Co., Sparks, MD, United States) and agar dilution method for fosfomycin. MIC results were interpreted according to the [European Committee on Antimicrobial Susceptibility Testing [EUCAST] (2016)]^1 breakpoints. Studies were performed in triplicate.

[2] = system: K. pneumoniae Kp28, OXA-48 plus CTX-M-15 producer; test: as above; type: cell-based, Klebsiella pneumoniae; details: supplement table, strain KPc28; for MIC: Klebsiella pneumoniae; for SIR, classification according to EUCAST definitions: EUCAST 2016 breakpoints, fosfomycin by agar dilution
Excerpt: as §1, §2

[3] = system: K. pneumoniae Kp21, VIM-1/DHA-1 producer; test: as above; type: cell-based, Klebsiella pneumoniae; details: supplement table, strain KPc21; for MIC: Klebsiella pneumoniae; for SIR, classification according to EUCAST definitions: EUCAST 2016 breakpoints, fosfomycin by agar dilution
Excerpt: as §1, §2

[4] = system: K. pneumoniae Kp07, VIM-1 producer; test: as above; type: cell-based, Klebsiella pneumoniae; details: supplement table, strain KPc07; for MIC: Klebsiella pneumoniae; for SIR, classification according to EUCAST definitions: EUCAST 2016 breakpoints, fosfomycin by agar dilution
Excerpt: as §1, §2

[5] = system: K. pneumoniae OXA-48 plus CTX-M-15 strain; test: Murine peritoneal sepsis model; type: in vivo, C57BL/6 mice infected with Klebsiella pneumoniae; details: CMS 20 mg/kg/8 h ip, rifampin 25 mg/kg/6 h ip, alone or combined
Experimental: (§3) A previously described murine peritoneal sepsis model was used ([Parra Millan et al., 2016]). Briefly, groups of un-anesthetized C57BL/6 mice were infected by ip injection of 0.5 mL of the Minimal Lethal Dose (MLD) of each strain, corresponding to (log10 cfu/mL): 8.97, 8.94 9.35, and 8.38 for VIM-1, VIM-1/DHA-1, OXA-48 plus CTX-M-15, and KPC-3 strains, respectively. Treatments were initiated 4 h post-inoculation. […] Afterward, mice were treated and monitored for 72 h. […] Samples were extracted and processed immediately after the death of mice; the survivor mice were sacrificed (sodium thiopental) at the 72 h. Aseptic thoracotomies were carried out, and blood samples were obtained for qualitative blood cultures; results were expressed as positive (≥1 cfu present in the plate) or negative. Spleens were aseptically extracted, weighed, and homogenized in sterile saline (Stomacher 80; Tekmar Co., Cincinnati, OH, United States) before quantitative cultures (log10 cfu/g) in Columbia agar with 5% sheep blood plates.
(§4) Mortality and bacteremia rates are expressed as percentages and bacterial tissue concentrations (log10 cfu/g) as means ±SD. The two-tailed Fisher’s test, analysis of variance (ANOVA), and the Dunnet and Tukey post hoc tests were used. A P < 0.05 was considered significant. The SPSS v22.0 statistical package was used (SPSS Inc).

[6] = system: K. pneumoniae VIM-1 producer; type: cell-based, Klebsiella pneumoniae; details: colistin 0.5 mg/L (MIC), rifampin 2 mg/L, alone or combined; inoculum 1 × 10^6 cfu/mL, 37°C, samples 0-24 h; three experiments
Experimental: (§5) (2016)]. […] Tubes were incubated at 37°C, with shaking, and samples were taken at 0, 1, 3, 6, and 24 h, serially diluted and plated using a spiral platter (Eddy Jet, IUL S.A., Barcelona, Spain). Bacterial colonies were counted using an automatic counter (Flash & Go, IUL S.A., Barcelona, Spain) ([Pournaras et al., 2011]; [Souli et al., 2011]). Experiments were performed three times on separate occasions. […] Bactericidal activities of single antibiotics or combination were defined as a decrease ≥ 3 log10 cfu/mL from the starting inoculum ([Souli et al., 2009]). Studies were performed in triplicate.
(§6) The RIF concentration used for all strains was 2 mg/L. RIF, filled circles; CST, filled squares; combination of both antimicrobials, filled triangles.

[7] = system: K. pneumoniae VIM-1/DHA-1 producer; type: cell-based, Klebsiella pneumoniae; details: colistin 2 mg/L (EUCAST breakpoint), rifampin 2 mg/L, alone or combined; inoculum 1 × 10^6 cfu/mL, 37°C, samples 0-24 h; three experiments
Experimental: as §5, §6

[8] = system: K. pneumoniae OXA-48 plus CTX-M-15 producer; type: cell-based, Klebsiella pneumoniae; details: colistin 0.5 mg/L (MIC), rifampin 2 mg/L, alone or combined; inoculum 1 × 10^6 cfu/mL, 37°C, samples 0-24 h; three experiments
Experimental: as §5, §6

[9] = Serum pharmacokinetics in healthy mice; details: single ip dose (CMS 20 mg/kg; rifampin 25 mg/kg), LC-MS/MS, PKSOLVER
Experimental: Mice were housed in an individually ventilated cage system under specific pathogen-free conditions, and water and food supplied ad libitum. […] All procedures were performed under sodium thiopental (B. Braun Medical S.A., Spain) anesthesia, and all efforts were made to minimize suffering.
Blood samples were immediately centrifuged (4500 rpm, 15 min at 4°C), and serum samples stored at -80°C until the analysis. Both serum free and total antibiotic concentrations were measured using HPLC-tandem mass spectrometry (LC-MS/MS) ([Waters et al., 2008]; [Gobin et al., 2010]). Free fractions of the drugs were calculated as described previously ([Waters et al., 2008]; [Gonzalez et al., 2013]; [Cheah et al., 2015]).

[10] = system: K. pneumoniae OXA-48 plus CTX-M-15 strain; type: in vivo; details: CMS 20 mg/kg/8 h ip, rifampin 25 mg/kg/6 h ip, alone or combined
Experimental: A previously characterized murine pneumonia model was used ([Pachon-Ibanez et al., 2010]; [Docobo-Perez et al., 2012]; [Parra Millan et al., 2016]) with the OXA-48 plus CTX-M-15 strain, as OXA-48 is the most prevalent carbapenemase in Spain nowadays ([Palacios-Baena et al., 2016]). Anesthetized mice were infected intratracheally, using 50 μl of a final inoculum of 8.18 log10 cfu/mL. Therapies were initiated 4 h post-infection and treatment groups and dosages were the same as in the peritoneal sepsis model. Mice were treated and monitored over 72 h. After death or sacrifice of the mice at 72 h, blood and lungs samples were aseptically obtained and processed as detailed above.
as §4

[11] = system: K. pneumoniae VIM-1/DHA-1 strain; type: in vivo; details: CMS 20 mg/kg/8 h ip, rifampin 25 mg/kg/6 h ip, alone or combined
Experimental: as §3, §4

[12] = system: K. pneumoniae VIM-1 strain; type: in vivo; details: CMS 20 mg/kg/8 h ip, rifampin 25 mg/kg/6 h ip, alone or combined
Experimental: as §3, §4

[13] = broth microdilution, read-out: MIC
[14] = supplement table, strain KPc29, EUCAST 2016 breakpoints, fosfomycin by agar dilution
[15] = agar dilution, read-out: MIC (agar dilution method)
[16] = 72 h, from 4 h post-inoculation
[17] = qualitative blood cultures at death or 72 h

| Compound | MIC [1] | MIC [2, 13] | SIR, classification according to EUCAST definitions [2] | MIC [3, 13] | SIR, classification according to EUCAST definitions [3] | MIC [4, 13] | SIR, classification according to EUCAST definitions [4] | SIR, classification according to EUCAST definitions [1, 14] | further results |
| --- | --- | --- | --- | --- | --- | --- | --- | --- | --- |
| NCC[C@H](O)C(=O)N[C@@H]1C[C@H](N)[C@@H](O[C@H]2O[C@H](CN)[C@@H](O)[C@H](O)[C@H]2O)[C@H](O)[C@H]1O[C@H]1O[C@H](CO)[C@@H](O)[C@H](N)[C@H]1O [Amikacin] | > 32 µg/mL | 1 µg/mL (≈ 1.71 µM) | S | 4 µg/mL (≈ 6.83 µM) | S | 1 µg/mL (≈ 1.71 µM) | S |  | SIR, classification according to EUCAST definitions [1]: R |
| C[C@@H]1O[C@@H]1P(=O)(O)O [Fosfomycin] |  |  | S |  | S |  | S | R | MIC ([1]; supplement table, strain KPc29, agar dilution, read-out: MIC (agar dilution method)): 64 µg/mL (≈ 464 µM); MIC [2, 15]: 32 µg/mL (≈ 232 µM); MIC [3, 15]: 8 µg/mL (≈ 57.9 µM); MIC [4, 15]: 8 µg/mL (≈ 57.9 µM) |
| CNC(C)C1CCC(N)C(OC2C(N)CC(N)C(OC3OCC(C)(O)C(NC)C3O)C2O)O1 (stereo not drawn) [Gentamicin] |  | 0.5 µg/mL (≈ 1.05 µM) | S | 2 µg/mL (≈ 4.19 µM) | S | 4 µg/mL (≈ 8.38 µM) | I | S |  |
| C[C@@H](O)[C@H]1C(=O)N2C(C(=O)O)=C(S[C@@H]3CN[C@H](C(=O)N(C)C)C3)[C@H](C)[C@H]12 [Meropenem] | > 32 µg/mL | 2 µg/mL (≈ 5.22 µM) | S | 16 µg/mL (≈ 41.7 µM) | R | 2 µg/mL (≈ 5.22 µM) | S | R |  |
| CO[C@H]1/C=C/O[C@@]2(C)Oc3c(C)c(O)c4c(O)c(c(/C=N/N5CCN(C)CC5)c(O)c4c3C2=O)NC(=O)/C(C)=C\C=C\[C@H](C)[C@H](O)[C@@H](C)[C@@H](O)[C@@H](C)[C@H](OC(C)=O)[C@@H]1C [Rifampin, rifampin] |  |  |  |  |  |  |  |  | Mice mortality (%) [5, 16]: 100%; Log10 cfu/g spleen (mean ±SD) ([5]; ip MLD 9.35 log10 cfu/mL, from 4 h post-inoculation, 72 h, at death or 72 h, SD): 8.24 ± 0.76^c log10 cfu/g; Bacteremia (%) [5, 17]: 100%; Bactericidal activity in time-kill curves (decrease ≥ 3 log10 cfu/mL from the starting inoculum) [6]: did not show bactericidal activity; Bactericidal activity in time-kill curves (decrease ≥ 3 log10 cfu/mL from the starting inoculum) [7]: did not show bactericidal activity; Bactericidal activity in time-kill curves (decrease ≥ 3 log10 cfu/mL from the starting inoculum) [8]: did not show bactericidal activity; AUC0-24, free drug in serum (fAUC0-24) ([9]; free (fCST, fRIF)): 44.14 mg⋅h/L; Cmax, free drug in serum ([9]; free (fCST, fRIF), sets of three mice): 2900 ng/mL; AUC0-24, total drug in serum ([9]; total (tCST, tRIF)): 1103.58 mg⋅h/L; Cmax, total drug in serum ([9]; total (tCST, tRIF), sets of three mice): 72580 ng/mL; Bacteremia (%) ([10]; blood cultures at death or 72 h): 20%; Log10 cfu/g lung (mean ±SD) ([10]; intratracheal 50 μl of 8.18 log10 cfu/mL, from 4 h post-infection, 72 h, at death or 72 h, SD): 3.07 ± 1.63^a log10 cfu/g; Mice mortality (%) [11, 16]: 100%; Log10 cfu/g spleen (mean ±SD) ([11]; ip MLD 8.94 log10 cfu/mL, from 4 h post-inoculation, 72 h, at death or 72 h, SD): 9.68 ± 0.09 log10 cfu/g; Bacteremia (%) [11, 17]: 100%; Mice mortality (%) [12, 16]: 100%; Bacteremia (%) [12, 17]: 100% |
